The subject of one test is Lolium perenne (LOLPE). Put plainly: Biological Example 2 glasshouse assay (IF50 formulation, X-77), post-emergence. Type of test: in vivo. The following applies: 14 or 15 DAA. The method, then:
Seeds of a variety of monocotyledonous and dicotyledonous test plants are sown in standard soil in pots. The plants are cultivated for one day (for pre-emergence) or for about 12 days (range=10-13 days) (for post-emergence) under controlled conditions in a glasshouse (warm climate species at 24/18° C., cool climate species at 20/16° C., both at day/night; 16 hours light; 65% humidity). An “instant formulation”, known as the “IF50”, containing 50 g/litre (i.e. 5% w/v) of the “technical” (i.e. unformulated) active ingredient is prepared by dissolving the active ingredient in a mixture of organic solvents and emulsifier, details of which are provided in the Table below. This IF50 is then mixed with a small, variable amount of acetone to aid dissolution, before addition of a 0.2% v/v aqueous solution of the adjuvant X-77 (which is a mixture of alkyl aryl polyoxyethylene glycols and free fatty acids in isopropanol, CAS Registry number 11097-66-8), as the aqueous diluent, to form an aqueous spray solution which contains a predetermined concentration of the active ingredient (which varies depending on the application rate of the active ingredient to the plants) and 0.2% v/v of the adjuvant X-77. This aqueous spray solution is then sprayed onto the plants, after one day's cultivation (for pre-emergence) or after about 12 days' cultivation (for post-emergence).
The test plants are then grown on, in a glasshouse (greenhouse) under controlled conditions (at either 24/18° C. or 20/16° C. (day/night) as mentioned above; 16 hours light; 65% humidity) and are watered twice daily. Either 14 or 15 days after application of the herbicide (14 or 15 DAA) (for post-emergence), or 20 days after application of the herbicide (20 DAA) (for pre-emergence), the test plants are evaluated visually, and an assessed percentage phytotoxicity score is given for each herbicidal application on each plant species (where 100%=total damage to plant; 0%=no damage to plant). Some of the typical test plants are as follows: Cool climate crop plants: Triticum aestivum (TRZAW, winter wheat), Brassica napus (BRSNN, rape, also called oilseed rape or rapeseed), Beta vulgaris (BEAVA, sugarbeet). Warm climate crop plants: Glycine max (GLXMA, soybean). Cool climate (“cool season”) grassy monocotyledonous weeds: Alopecurus myosuroides (ALOMY), Avena fatua (AVEFA), Lolium perenne (LOLPE), Poa annua (POAAN), Bromus tectorum (BROTE). Warm climate (“warm season”) grassy monocotyledonous weeds: Setaria faberi (SETFA), SORVU (Sorghum bicolor (L.) Moench ssp. Bicolor, or Sorghum vulgare Pers.), Digitaria sanguinalis (DIGSA), Echinochloa crus-galli (ECHCG), Brachiaria plantaginea (BRAPL), Zea mays (ZEAMX, corn, maize, e.g. volunteer corn), Panicum miliaceum (PANMI).

The subject of test [1] is grassy (in particular warm climate grassy) monocotyledonous weeds. Description: Post-emergence herbicidal activity, summary statements on Biological Examples 1 to 3. Type of test: in vivo. The conditions noted are these: applied at about 250 g/ha post-emergence; Biological Examples 1 and 2. As to the method: Seeds of a variety of test plant species were sown in standard soil ** in pots. After cultivation for one day (pre-emergence) or after 8 days cultivation (post-emergence) under controlled conditions in a glasshouse (at 24/16° C., day/night; 14 hours light; 65% humidity), the plants were sprayed with an aqueous spray solution derived from the formulation of the technical active ingredient (the test herbicide) in acetone/water (50:50) solution containing 0.5% Tween 20 (polyoxyethylene sorbitan monolaurate, CAS Reg. No. 9005-64-5). The test plants were then grown on under controlled conditions in a glasshouse (at 24/16° C., day/night; 14 hours light; 65% humidity) and watered twice daily. 13 Days after application of the test herbicide, for pre- and post-emergence, the test was evaluated visually for percentage phytotoxicity to each plant (where 100%=total damage to plant; 0%=no damage to plant). Generally, each test herbicide is only tested on 1 plant per plant species for each application rate tested and for each application timing. ** The “standard soil” in Biological Example 1 is usually a “sand” or “sandy loam” type of soil.
Seeds of a variety of monocotyledonous and dicotyledonous test plants are sown in standard soil in pots. The plants are cultivated for one day (for pre-emergence) or for about 12 days (range=10-13 days) (for post-emergence) under controlled conditions in a glasshouse (warm climate species at 24/18° C., cool climate species at 20/16° C., both at day/night; 16 hours light; 65% humidity). An “instant formulation”, known as the “IF50”, containing 50 g/litre (i.e. 5% w/v) of the “technical” (i.e. unformulated) active ingredient is prepared by dissolving the active ingredient in a mixture of organic solvents and emulsifier, details of which are provided in the Table below. […]
The test plants are then grown on, in a glasshouse (greenhouse) under controlled conditions (at either 24/18° C. or 20/16° C. (day/night) as mentioned above; 16 hours light; 65% humidity) and are watered twice daily. Either 14 or 15 days after application of the herbicide (14 or 15 DAA) (for post-emergence), or 20 days after application of the herbicide (20 DAA) (for pre-emergence), the test plants are evaluated visually, and an assessed percentage phytotoxicity score is given for each herbicidal application on each plant species (where 100%=total damage to plant; 0%=no damage to plant). […]

Structures are written as SMILES.

For the molecule `C#CCC1CC(=O)C(c2c(F)cc(C#CC)cc2OC)C1=O` (stereo not drawn) [Compound A8, 2-(2-fluoro-6-methoxy-4-prop-1-ynyl-phenyl)-4-prop-2-ynyl-cyclopentane-1,3-dione], the “percentage phytotoxicity score LOLPE” value in the test with Lolium perenne (LOLPE) (125 g/ha (rate taken from row order)) stood at 30%; in the test on Lolium perenne (LOLPE) (250 g/ha (rate taken from row order)), 80%. The “post-emergent herbicidal potency against grassy monocotyledonous weeds (in words)” value in test [1] was “potent post-emergent herbicides”.
